According to patent US12226441B2, “Composition for inhibiting intestinal permeability, treating leaky gut related diseases and/or preventing leaky gut related diseases” (priority 2020, dated 2025):

Legend:
[1] = tested on: CLDN3; experiment: real-time quantitative PCR of tight junction gene expression in rhamnolipid-induced Caco-2 cells; assay type: cell-based, human; conditions: positive control, 50 μM (18.6 μg/mL), rhamnolipid-induced Caco-2, vs negative control
Excerpt: (§1) Total ribonucleic acid (total RNA) of cells was isolated by Total RNA Purification Kit (GeneMark, Taichung, Taiwan). Using Maxima First Strand cDNA Synthesis Kit (Thermo Fisher Scientific), according to the manufacturer's operating procedures, the obtained total ribonucleic acid subjected to a reverse transcription polymerase chain reaction to reverse-transcript messenger ribonucleic acid (mRNA) into cDNA. Next, the cDNA samples were subjected to a real-time quantitative polymerase chain reaction to determine the expression levels of CLDN3, OCLN and TJP1 mRNA.

[2] = tested on: OCLN; experiment: as above; assay type: cell-based, human; conditions: positive control, 50 μM (18.6 μg/mL), rhamnolipid-induced Caco-2, vs negative control
Excerpt: as §1

[3] = tested on: TJP1; experiment: as above; assay type: cell-based, human; conditions: positive control, 50 μM (18.6 μg/mL), rhamnolipid-induced Caco-2, vs negative control
Excerpt: as §1

[4] = tested on: mice with circadian disruption; experiment: circadian disruption (insomnia) animal model, brainwave sleep cycle parameters; assay type: in vivo, C57BL/6 male mice; conditions: positive control, light-dark cycle 7 hours:7 hours, 2.5 mg/kg orally, Day 4, vs negative control
Experimental: The animals used in this experiment were 8-week-old C57BL/6 male mice (purchased from the National Laboratory Animal Center).
The mice were subjected to a surgical operation to load electrodes on the skull to record brain waves. After a 7-day recovery period, the mice were reared for 2 weeks under a normal light-dark cycle of 12 hours: 12 hours, and the 24-hour brainwave changes of the mice were recorded as the basic point.
During the feeding, the mice in the negative control group were given the same amount of sterile water, mice in the positive control group were given diazepam (2.5 mg/kg orally), and mice in the experimental group were given 200 mg/kg Sample 15B.
The 24-hour brainwave changes of mice were recorded on Day 4 after the circadian disruption to analyze sleep cycle parameters of the time proportions (%) of the rapid eye movement (REM) and non-rapid eye movement (NREM), etc.

[5] = tested on: DSS-induced mice; experiment: dextran sulfate sodium salt (DSS) induced abnormal intestinal permeability animal model, serum FITC-dextran; assay type: in vivo, C57BL/6 male mice; conditions: positive control, 0.5% (v/v) DSS, 200 μM, 14 days, vs negative control
Experimental: The animals used in this experiment were 5-6 week old C57BL/6 male mice (purchased from the National Laboratory Animal Center).
The experiment was performed by an animal model of dextran sulfate sodium salt (DSS) induced abnormal intestinal permeability (Laroui H, Ingersoll S A, Liu H C, Baker M T, Ayyadurai S, et al. (2012) Dextran Sodium Sulfate (DSS) Induces Colitis in Mice by Forming Nano-Lipocomplexes with Medium-Chain-Length Fatty Acids in the Colon. PLOS ONE 7(3): e32084. doi:10.1371/journal.pone.0032084).
The mice were divided into an untreated group (Naive), a negative control group (vehicle: water), a positive control group (5-aminosalicylic acid (5-ASA)) and 3 experiments groups (Sample 15B (Ganoderma extract+red jujube extract+lotus seed extract+lotus seed extract (the weight ratio of the respective herbal raw materials used to obtain the respective extracts is 3:1:1:1))). The mice in the untreated group were not treated in any way. […]
The FITC-dextran content in mouse serum was measured with a multifunctional microplate spectrometer (Molecular Device, FlexStation® 3) as an indicator of intestinal permeability.

SMILES: COc1ccc2cc3[n+](cc2c1OC)CCc1cc2c(cc1-3)OCO2 [berberine chloride]
- expression level of CLDN3 gene [1]: significantly increase
- expression level of OCLN gene [2]: significantly increase
- expression level of TJP1 gene [3]: significantly increase

SMILES: CN1C(=O)CN=C(c2ccccc2)c2cc(Cl)ccc21 [diazepam]
- time proportion of the non-rapid eye movement (NREM) [4]: significantly increase the time proportion of the non-rapid eye movement

SMILES: Nc1ccc(O)c(C(=O)O)c1 [5-aminosalicylic acid]
- serum FITC-dextran concentration (intestinal permeability) [5]: reduce the serum FITC-dextran concentration
